The source of these data is patent US8530648B2, “Diaza-spiro[5.5]undecanes” (Novartis AG, priority 2009, dated 2013).

pKd, pKi: −log10 of the molar value.

Test [1] deals with T1, hOx1R (Homo sapiens (Human), UniProt O43613). The experiment in a line: Radioligand binding assay, [3H]-SB649868, hOx1R. The note with it: radioligand [3H]-SB649868, competition. On the procedure: (§1) For crude cell membrane preparations, cells (CHO, Chinese hamster ovary or HEK, human embryonic kidney) expressing human orexin 1 or human orexin 2 receptors, were washed with HEPES (10 mM, pH 7.5), scraped off the culture plates with the same buffer, and centrifuged at 4° C. for 5 min at 2500×g. The cell pellet was either stored at −80° C. or used directly. Before the experiments, cell membranes were re-suspended in binding assay buffer (10 mM HEPES, 0.5% (w/v) bovine serum albumin, pH 7.5) by homogenisation with a Polytron homogeniser at 50 Hz for 20 s. Cell membranes were also used as made available by commercial providers.
(§2) Bound radioactivity was measured, and data were analysed with the program XLFIT or Graphpad Prism. Protein concentration was determined according to the Bradford/BioRad Protein Assay Kit.
(§3) In competition experiments, cell homogenates (150 μl) were incubated in assay buffer (10 mM HEPES, pH 7.5, 0.5% (w/v) bovine serum albumin, 5 mM MgCl2, 1 mM CaCl2, and tween 0.05%) for 1 h at room temperature with about 1 nM of the radioligand [^3H]-SB649868, 66 Ci/mmole, 50 μl), and with various concentrations of compounds of the invention (50 μl) in triplicates; non-specific binding was determined in the presence of almorexant (10 μM).

The target of test [2] is T1, hOx1R. The test can be described thus: Calcium accumulation in cells (FLIPR), hOx1R. Conditions: for pKi: inhibition of orexin A induced calcium accumulation, Cheng and Prusoff correction; for inhibition at 10 µM: measured at a concentration of 10 μM of compound. The class given is cell-based. Summed up:
(§4)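 Cells expressing human orexin 1 or 2 receptor, serum-deprived overnight, loaded with Fluo-4-AM (2 μM) plus 0.1 mM probenecid, pH 7.4 HEPES buffer with 1% BSA.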

Test [3] has as its target T2, hOx2R (Homo sapiens (Human), UniProt O43614). The test can be described thus: Calcium accumulation in cells (FLIPR), hOx2R. The test is classed as cell-based. Conditions: for pKi: inhibition of orexin A induced calcium accumulation, Cheng and Prusoff correction. Summed up: as §4
Test [4] addresses T2, hOx2R. The experiment in a line: Radioligand binding assay, [3H]-SB649868, hOx2R. The note with it: radioligand [3H]-SB649868, competition. On the procedure: as §1, §2, §3

T1 sequence (O43613 whole entry): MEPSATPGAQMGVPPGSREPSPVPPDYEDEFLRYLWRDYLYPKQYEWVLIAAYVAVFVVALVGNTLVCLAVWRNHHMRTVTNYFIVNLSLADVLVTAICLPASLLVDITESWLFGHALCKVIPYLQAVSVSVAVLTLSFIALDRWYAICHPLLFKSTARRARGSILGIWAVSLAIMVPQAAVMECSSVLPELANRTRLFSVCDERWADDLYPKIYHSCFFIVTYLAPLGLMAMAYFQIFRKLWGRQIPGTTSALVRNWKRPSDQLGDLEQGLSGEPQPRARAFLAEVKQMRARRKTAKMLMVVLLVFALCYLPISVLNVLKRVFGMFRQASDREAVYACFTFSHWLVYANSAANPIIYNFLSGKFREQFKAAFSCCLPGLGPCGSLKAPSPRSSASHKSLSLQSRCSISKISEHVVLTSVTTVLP
T2 sequence (O43614 whole entry): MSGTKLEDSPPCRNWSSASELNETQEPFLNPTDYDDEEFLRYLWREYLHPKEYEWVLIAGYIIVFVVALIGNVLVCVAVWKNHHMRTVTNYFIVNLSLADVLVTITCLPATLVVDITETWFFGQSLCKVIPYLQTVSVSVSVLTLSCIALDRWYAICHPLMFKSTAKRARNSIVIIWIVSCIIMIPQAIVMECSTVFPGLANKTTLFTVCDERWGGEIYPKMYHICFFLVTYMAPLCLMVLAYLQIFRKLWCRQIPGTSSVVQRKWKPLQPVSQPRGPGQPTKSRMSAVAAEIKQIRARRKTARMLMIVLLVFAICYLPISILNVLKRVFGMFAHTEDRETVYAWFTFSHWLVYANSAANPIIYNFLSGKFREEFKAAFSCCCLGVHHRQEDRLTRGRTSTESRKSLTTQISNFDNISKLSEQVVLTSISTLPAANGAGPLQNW

On to `O=C1N(Cc2ccccc2-n2nccn2)CCCC12CCN(c1cnc3ccccc3n1)CC2` [Example 49, 2-(2-(2H-1,2,3-triazol-2-yl)benzyl)-9-(quinoxalin-2-yl)-2,9-diazaspiro[5.5]undecan-1-one], for which the negative logarithm of the Kd (pKd) was 5.49 on hOx1R [1] and 6.94 on hOx2R [4]. Moreover, the pKi at hOx1R [2] was 5.68; on hOx2R [3], 7.41.
The matching figures for `COc1cccc(-n2cncc2CN2CCCC3(CCN(c4cnc5ccccc5n4)CC3)C2=O)c1` [Example 111, 2-((1-(3-methoxyphenyl)-1H-imidazol-5-yl)methyl)-9-(quinoxalin-2-yl)-2,9-diazaspiro[5.5]undecan-1-one]: 5.42, 6.25, 5.89 and 7.07.
The like results for `Cc1ccc2oc(N3CCC4(CCCC(=O)N4Cc4cccc5[nH]ccc45)CC3)nc2c1` [Example 140, 1-((1H-indol-4-yl)methyl)-9-(5-methylbenzo[d]oxazol-2-yl)-1,9-diazaspiro[5.5]undecan-2-one] were, in that order, 5.80, 6.42, 6.18 and 7.09.
Regarding `Cc1noc(-c2cccc(CN3CCCC4(CCN(c5cnc6ccccc6n5)CC4)C3=O)c2)n1` [Example 104, 2-(3-(3-methyl-1,2,4-oxadiazol-5-yl)benzyl)-9-(quinoxalin-2-yl)-2,9-diazaspiro[5.5]undecan-1-one], the pKi at hOx2R [3] was 6.97. In addition, the pKd at hOx2R [4] was 5.86.
As for `O=C1N(Cc2noc3ccccc23)CCCC12CCN(c1cnc3ccccc3n1)CC2` [Example 36, 2-(benzo[d]isoxazol-3-ylmethyl)-9-(quinoxalin-2-yl)-2,9-diazaspiro[5.5]undecan-1-one], the values for the pKi on hOx1R [2] and on hOx2R [3] were 6.23 and 6.71, respectively.
Take `O=C1N(Cc2c[nH]c3ccccc23)CCCC12CCN(c1cnc3nccnc3c1)CC2` [Example 146, 2-((1H-indol-3-yl)methyl)-9-(pyrido[3,2-b]pyrazin-7-yl)-2,9-diazaspiro[5.5]undecan-1-one]: the inhibition at 10 µM at hOx1R [2] is 29%. Further, the pKi on hOx2R [3] was 6.21.
The matching figures for `COc1ccc2[nH]c(N3CCC4(CCCN(Cc5c[nH]c6ccccc56)C4=O)CC3)nc2c1` [Example 159, 2-((1H-indol-3-yl)methyl)-9-(5-methoxy-1H-benzo[d]imidazol-2-yl)-2,9-diazaspiro[5.5]undecan-1-one]: 24% and 6.13.
The matching figures for `O=C1N(Cc2cccc(Cl)c2)CCCC12CCN(c1nc3ccccc3[nH]1)CC2` [Example 28, 9-(1H-benzo[d]imidazol-2-yl)-2-(3-chlorobenzyl)-2,9-diazaspiro[5.5]undecan-1-one]: 33% and 6.80.
Turning to `O=C1N(Cc2cc3ccccc3[nH]2)CCCC12CCN(c1cnc3ccccc3n1)CC2` [Example 121, 2-((1H-indol-2-yl)methyl)-9-(quinoxalin-2-yl)-2,9-diazaspiro[5.5]undecan-1-one], the results for the pKi on hOx1R [2] and on hOx2R [3] were 5.60 and 5.78, respectively.
The matching figures for `O=C1N(Cc2ccnc(N3CCOCC3)c2)CCCC12CCN(c1cnc3ccccc3n1)CC2` [Example 56, 2-((2-morpholinopyridin-4-yl)methyl)-9-(quinoxalin-2-yl)-2,9-diazaspiro[5.5]undecan-1-one]: 5.69 and 6.32.
In the case of `Cc1nnc(-c2ccc(CN3CCCC4(CCN(c5cnc6ccccc6n5)CC4)C3=O)cc2)o1` [Example 109, 2-(4-(5-methyl-1,3,4-oxadiazol-2-yl)benzyl)-9-(quinoxalin-2-yl)-2,9-diazaspiro[5.5]undecan-1-one], the values for the pKi on hOx1R [2] and at hOx2R [3] were 5.50 and 5.91, respectively.
The like results for `Cn1ccc2c(CN3CCCC4(CCN(c5cnc6ccccc6n5)CC4)C3=O)cccc21` [Example 26, 2-((1-methyl-1H-indol-4-yl)methyl)-9-(quinoxalin-2-yl)-2,9-diazaspiro[5.5]undecan-1-one] were, in that order, 6.21 and 6.77.
The like results for `O=C1CCCC2(CCN(c3nc4ccccc4[nH]3)CC2)N1Cc1cccc2[nH]ccc12` [Example 138, 1-((1H-indol-4-yl)methyl)-9-(1H-benzo[d]imidazol-2-yl)-1,9-diazaspiro[5.5]undecan-2-one] were, in that order, 5.42 and 5.71.
The matching figures for `Cc1cc(CN2CCCC3(CCN(c4cnc5ccccc5n4)CC3)C2=O)c2ccccc2n1` [Example 33, 2-((2-methylquinolin-4-yl)methyl)-9-(quinoxalin-2-yl)-2,9-diazaspiro[5.5]undecan-1-one]: 5.63 and 6.55.
For `O=C1N(Cc2cccc(N3CCCC3)n2)CCCC12CCN(c1cnc3ccccc3n1)CC2` [Example 103, 2-((6-(pyrrolidln-1-yl)pyridin-2-yl)methyl)-9-(quinoxalin-2-yl)-2,9-diazaspiro[5.5]undecan-1-one], the pKi is 5.60 on hOx1R [2] and 5.93 on hOx2R [3].
The like results for `O=C1N(Cn2nnc3ccccc32)CCCC12CCN(c1cnc3ccccc3n1)CC2` [Example 66, 2-((1H-benzo[d][1,2,3]triazol-1-yl)methyl)-9-(quinoxalin-2-yl)-2,9-diazaspiro[5.5]undecan-1-one] were, in that order, 5.77 and 6.52.
As for `Cc1cccc(CN2CCCC3(CCN(c4cnc5ccccc5n4)CC3)C2=O)n1` [Example 97, 2-((6-methylpyridin-2-yl)methyl)-9-(quinoxalin-2-yl)-2,9-diazaspiro[5.5]undecan-1-one], the inhibition at 10 µM at hOx1R [2] turned out to be 14%; at hOx2R [3] (measured at a concentration of 10 μM of compound), 33%.
As for `O=C1CCCC2(CCN(c3cnc4ccccc4n3)CC2)N1Cc1noc2ccccc12` [Example 135, 1-(benzo[d]isoxazol-3-ylmethyl)-9-(quinoxalin-2-yl)-1,9-diazaspiro[5.5]undecan-2-one], the pKi on hOx1R [2] is 6.62; at hOx2R [3], 6.73.
As to `O=C1N(Cc2c[nH]c3ccccc23)CCCC12CCN(c1nc3cc(Cl)ccc3o1)CC2` [Example 131, 2-((1H-indol-3-yl)methyl)-9-(5-chlorobenzo[d]oxazol-2-yl)-2,9-diazaspiro[5.5]undecan-1-one], the inhibition at 10 µM on hOx1R [2] turned out to be 48%. Further, on hOx2R [3], the pKi was 6.28.
For the molecule `O=C1CCCC2(CCN(c3nnc(-c4ccccc4)o3)CC2)N1Cc1cccc2[nH]ccc12` [Example 137, 1-((1H-indol-4-yl)methyl)-9-(5-phenyl-1,3,4-oxadiazol-2-yl)-1,9-diazaspiro[5.5]undecan-2-one], the pKi at hOx1R [2] is 6.29; at hOx2R [3] it was 6.18.
The matching figures for `CC(c1c[nH]c2ccccc12)N1CCCC2(CCN(c3cnc4ccccc4n3)CC2)C1=O` (stereo not shown) [Example 74, 2-(1-(1H-indol-3-yl)ethyl)-9-(quinoxalin-2-yl)-2,9-diazaspiro[5.5]undecan-1-one]: 6.17 and 6.73.
The like results for `Cc1[nH]c2ccccc2c1CN1CCCC2(CCN(c3cnc4ccccc4n3)CC2)C1=O` [Example 133, 2-((2-methyl-1H-indol-3-yl)methyl)-9-(quinoxalin-2-yl)-2,9-diazaspiro[5.5]undecan-1-one] were, in that order, 5.94 and 6.61.
The matching figures for `Cc1cc(C)cc(CN2CCCC3(CCN(c4cnc5ccccc5n4)CC3)C2=O)c1` [Example 16, 2-(3,5-dimethylbenzyl)-9-(quinoxalin-2-yl)-2,9-diazaspiro[5.5]undecan-1-one]: 5.92 and 6.95.
